Assay results from PMC11268423 (Science Advances, 2024).

Tests used:
Test in all cases: microbe, parasite or virus in culture
Type in all cases: cell-based
SARS-CoV-2 WA-1 (P1) [1] = conditions: Severe acute respiratory syndrome coronavirus 2
SARS-CoV-2 WA-1 (P1) [2] = conditions: Severe acute respiratory syndrome coronavirus 2, A549-ACE2
SARS-CoV-2 WA-1 strain = conditions: Severe acute respiratory syndrome coronavirus 2

| Structure (SMILES) | EC50 (SARS-CoV-2 WA-1 (P1) [1]) | EC50 (SARS-CoV-2 WA-1 (P1) [2]) | EC50 (SARS-CoV-2 WA-1 strain) | EC90 (SARS-CoV-2 WA-1 strain) |
| --- | --- | --- | --- | --- |
| CC(C)(C)[C@H](NC(=O)C(F)(F)F)C(=O)N1C[C@H]2[C@@H]([C@H]1C(=O)N[C@H](C#N)C[C@@H]1CCNC1=O)C2(C)C [Nirmatrelvir] | 34.8 nM | 54 nM | 150 nM | 370 nM |
| CCC(CC)COC(=O)[C@H](C)N[P@](=O)(OC[C@H]1O[C@@](C#N)(c2ccc3c(N)ncnn23)[C@H](O)[C@@H]1O)Oc1ccccc1 [Remdesivir] | 29.1 nM | 75 nM | – | – |
